Test results taken from patent US7317018B2, “Anti-inflammatory medicament” (Medestea Internazionale S.p.A., priority 2000, dated 2008).

Tests used:
Format in all cases: in vivo
noninflamed rat paws = test: Paw pressure test (nociceptive threshold) in noninflamed rat paws
Experimental: (§1) Male Fischer inbred rats (Charles River Italy, Calco, Lecco, Italy) weighing about 250 g were used. Rats, under brief isoflurane anaesthesia received an intraplantar injection of Freund's complete adjuvant (FCA) (0.15 ml) into the right hind paw. This injection induced a unilateral inflammation (from 3 h until 24-48 h following injection) evidenced by increase in paw volume, hyperthermia and hyperalgesia. Hyperalgesia was assessed by an algesyometric test, using an analgesyometer (Ugo Basile, Comerio, Italy) to determine the paw pressure threshold, expressed in grams, namely the pressure required to elicit paw withdrawal, which indicates the nociceptive threshold value. 6 to 8 rats were used for each test. During these trials, animals were treated according to the “standard ethical guidelines” (NIH, 1985).
Dose/effect curves in noninflamed paws were in fact superimposable (until 120′ after oATP administration) using different concentrations of the molecule. In order to ascertain whether oATP analgesic effect was somewhat related to the activation of inflammatory cells able to produce endogenous β-endorphins, some rats were intravenously injected with fucoidin (10 mg/kg). Fucoidin in fact inhibits leukocyte diapedesis and their accumulation at the inflammation site. Pre-treatment with fucoidin was carried out in both paws, 30′ before FCA injection in one of the rat paws. Pain pressure threshold (PPT) was measured in both noninflamed and inflamed paws, before and after oATP injection (224 μm).

[1] = tested on: rat hind paw inflamed by Freund's complete adjuvant (FCA); test: Paw pressure test (nociceptive threshold) and inflammatory signs in rat hind paw inflamed by intraplantar Freund's complete adjuvant (FCA)
Experimental: As experimental model, a unilateral inflammation in rat hind paw, after intraplantar injection of Freund's complete adjuvant (FCA), has been used. The controlateral paw of treated animals, as well as that of untreated animals, were used as controls. Inflammation induced by FCA was evidenced, from 3 h until 24-48 h following injection, by increase in paw volume, hyperthermia and hyperalgesia. The latter was evaluated by an algesyometric test (paw pressure test) capable of evaluating the nociceptive threshold. […] Different doses of oATP always induced a significant, dose-dependent analgesic effect, lasting approximately 12-24 hours, with an effect peak already one hour after the administration.
as §1
Rat inflamed paw received, 24 hrs after FCA injection, intraplantar injection of different doses of oATP (56 to 336 μM), considering time 0 the moment of oATP injection.
The effect of the maximal oATP dose used was tested in a further set of experiments, for more prolonged times, on rat paws in which the inflammatory process had been induced 48 hrs before (table 2). […]

[2] = tested on: ATP content in paw subcutaneous tissue; test: ATP content of rat paw subcutaneous tissue, luminescence method; details: for ATP levels: 6 and 12 h following intraplantar oATP (35 μM), FIG. 3
Experimental: ATP content was assessed in oATP treated rat paws and controlateral untreated ones. Paw subcutaneous tissues were removed from both inflamed and noninflamed paws and rapidly frozen in liquid nitrogen. The frozen tissue samples were weighed, homogenised in phosphate buffer, then treated with K2CO3 and neutralised, finally centrifuged. The supernatant was used for ATP assay, following the luminescence method. We determined in a separate group of rats the modifications in ATP content induced in the plantar tissue by the inflammatory process and/or by oATP treatment. At established times, paw subcutaneous tissues were removed and rapidly frozen in liquid nitrogen, with the aim of blocking any metabolic activity. The frozen tissue was homogenized with a polytron (Kinematica GmbH, Luzern, Switzerland) in ice-cold 6% (w/v) HClO4 to extract nucleotides. The homogenate was centrifuged and the supernatant was used for ATP determination, following the procedure previously described (Marni et al., Transplantation (1988), 46: 830-835). ATP assay was performed by luminescence method (Ferrero et al., Res Commun Chem Path Pharmac 1984; 45: 55-67). We measured ATP levels, in inflamed (by 24 h FCA treatment) and noninflamed paws treated with oATP, at 6 and 12 h following oATP administration, and in controlateral untreated paws. […] ATP content, at 6 and 12 h following intraplantar oATP (35 μM) injection in rat paws: inflamed (by 24 FCA administration) (filled bars), inflamed-oATP treated (hatched bars), noninflamed (open bars), noninflamed-oATP-treated (horizontal line bars). *p<0.005 compared with inflamed untreated paws, Wilcoxon test. Data are expressed as means±S.E.M. of 7 experiments.

## Nc1ncnc2c1ncn2[C@@H]1O[C@H](COP(=O)(O)OP(=O)(O)OP(=O)(O)O)[C@@H](O)[C@H]1O [ATP, reference compound]
Noninflamed rat paws; 240′ after intraplantar injection of ATP (0.9 mmoles)
  nociceptive threshold: 25±3.0
Noninflamed rat paws; before intraplantar injection of ATP (0.9 mmoles)
  nociceptive threshold: 120±3.2
[1]; inflamed paws, after intraplantar injection of ATP (0.9 mmoles)
  nociceptive threshold: 50±4.1
[1]; inflamed paws, before intraplantar injection of ATP (0.9 mmoles)
  nociceptive threshold: 65±4.2

## Nc1ncnc2c1ncn2[C@@H](C=O)O[C@@H](C=O)COP(=O)(O)OP(=O)(O)OP(=O)(O)O [oATP, adenosine-5′-triphosphate-2′,3′-dialdehyde]
Noninflamed rat paws; already at the lowest oATP concentration (56 μM), dose/effect curves superimposable until 120′
  effect on nociceptive threshold: effective in increasing nociceptive threshold, for a short time
Noninflamed rat paws; fucoidin 10 mg/kg i.v. pre-treatment, oATP injection 224 μm, FIG. 1
  pain pressure threshold (PPT): did not significantly change PPT values
[1]; inflamed paws, fucoidin 10 mg/kg i.v. pre-treatment 30′ before FCA, oATP injection 224 μm, FIG. 1
  pain pressure threshold (PPT): restored PPT levels
[1]; intraplantar injection, different doses of oATP
  duration of analgesic effect: 12 to 24 h
[1]; intraplantar oATP 56 to 336 μM
  dose dependence of analgesic effect: dose-dependent effect
[1]; local treatment 3 hours after FCA, oATP 336 μM vs diclofenac 15 mg, FIG. 2
  analgesic efficacy compared with diclofenac: significantly higher than that of diclofenac
[1]; oATP 56 μM intraplantar, 24 hrs after FCA, inflamed paw, 30′
  nociceptive threshold or paw pressure threshold: 120 ± 2.1 g
[1]; oATP 56 μM intraplantar, 24 hrs after FCA, inflamed paw, 60′
  nociceptive threshold or paw pressure threshold: 190 ± 2.3 g
[1]; oATP 56 μM intraplantar, 24 hrs after FCA, inflamed paw, 90′
  nociceptive threshold or paw pressure threshold: 85 ± 2.5 g
[1]; oATP 56 μM intraplantar, 24 hrs after FCA, inflamed paw, 120′
  nociceptive threshold or paw pressure threshold: 75 ± 1.8 g
[1]; oATP 56 μM intraplantar, 24 hrs after FCA, inflamed paw, 240′
  nociceptive threshold or paw pressure threshold: 75 ± 2.6 g
[1]; oATP 56 μM intraplantar, 24 hrs after FCA, inflamed paw, time 0′ (untreated inflamed paw, baseline)
  nociceptive threshold or paw pressure threshold: 60 ± 1.6 g
[1]; oATP 112 μM intraplantar, 24 hrs after FCA, inflamed paw, 30′
  nociceptive threshold or paw pressure threshold: 140 ± 3.5 g
[1]; oATP 112 μM intraplantar, 24 hrs after FCA, inflamed paw, 60′
  nociceptive threshold or paw pressure threshold: 180 ± 4.2 g
[1]; oATP 112 μM intraplantar, 24 hrs after FCA, inflamed paw, 90′
  nociceptive threshold or paw pressure threshold: 150 ± 3.8 g
[1]; oATP 112 μM intraplantar, 24 hrs after FCA, inflamed paw, 120′
  nociceptive threshold or paw pressure threshold: 100 ± 3.0 g
[1]; oATP 112 μM intraplantar, 24 hrs after FCA, inflamed paw, 240′
  nociceptive threshold or paw pressure threshold: 105 ± 4.3 g
[1]; oATP 112 μM intraplantar, 24 hrs after FCA, inflamed paw, time 0′ (untreated inflamed paw, baseline)
  nociceptive threshold or paw pressure threshold: 65 ± 2.0 g
[1]; oATP 224 μM intraplantar, 24 hrs after FCA, inflamed paw, 30′
  nociceptive threshold or paw pressure threshold: 350 ± 54 g
[1]; oATP 224 μM intraplantar, 24 hrs after FCA, inflamed paw, 60′
  nociceptive threshold or paw pressure threshold: 400 ± 10.3 g
[1]; oATP 224 μM intraplantar, 24 hrs after FCA, inflamed paw, 90′
  nociceptive threshold or paw pressure threshold: 300 ± 11.2 g
[1]; oATP 224 μM intraplantar, 24 hrs after FCA, inflamed paw, 120′
  nociceptive threshold or paw pressure threshold: 185 ± 7.1 g
[1]; oATP 224 μM intraplantar, 24 hrs after FCA, inflamed paw, 240′
  nociceptive threshold or paw pressure threshold: 180 ± 8.9 g
[1]; oATP 224 μM intraplantar, 24 hrs after FCA, inflamed paw, time 0′ (untreated inflamed paw, baseline)
  nociceptive threshold or paw pressure threshold: 50 ± 1.5 g
[1]; oATP 336 μM intraplantar, 24 hrs after FCA, inflamed paw, 30′
  nociceptive threshold or paw pressure threshold: 300 ± 3.4 g
[1]; oATP 336 μM intraplantar, 24 hrs after FCA, inflamed paw, 60′, 750 = cut off
  nociceptive threshold or paw pressure threshold: => 750 *1 g
[1]; oATP 336 μM intraplantar, 24 hrs after FCA, inflamed paw, 90′, 750 = cut off
  nociceptive threshold or paw pressure threshold: => 750 *2 g
[1]; oATP 336 μM intraplantar, 24 hrs after FCA, inflamed paw, 120′
  nociceptive threshold or paw pressure threshold: 600 ± 20.8 g
[1]; oATP 336 μM intraplantar, 24 hrs after FCA, inflamed paw, 240′
  nociceptive threshold or paw pressure threshold: 550 ± 18.4 g
[1]; oATP 336 μM intraplantar, 24 hrs after FCA, inflamed paw, time 0′ (untreated inflamed paw, baseline)
  nociceptive threshold or paw pressure threshold: 60 ± 1.9 g
[1]; oATP 336 μM, inflammatory process induced 48 hrs before, 30′
  nociceptive threshold or paw pressure threshold: 210 ± 10.7 g
[1]; oATP 336 μM, inflammatory process induced 48 hrs before, 60′
  nociceptive threshold or paw pressure threshold: 360 ± 25.8 g
[1]; oATP 336 μM, inflammatory process induced 48 hrs before, 90′
  nociceptive threshold or paw pressure threshold: 395 ± 30.2 g
[1]; oATP 336 μM, inflammatory process induced 48 hrs before, 120′
  nociceptive threshold or paw pressure threshold: 450 ± 38.1 g
[1]; oATP 336 μM, inflammatory process induced 48 hrs before, 180′
  nociceptive threshold or paw pressure threshold: 550 ± 45.9 g
[1]; oATP 336 μM, inflammatory process induced 48 hrs before, 240′
  nociceptive threshold or paw pressure threshold: 690 ± 56.6 g
[1]; oATP 336 μM, inflammatory process induced 48 hrs before, 12 hours
  nociceptive threshold or paw pressure threshold: 400 ± 29.7 g
[1]; oATP 336 μM, inflammatory process induced 48 hrs before, 24 hours
  nociceptive threshold or paw pressure threshold: 210 ± 7.2 g
[1]; oATP 336 μM, inflammatory process induced 48 hrs before, 26 hours
  nociceptive threshold or paw pressure threshold: 190 ± 3.3 g
[1]; oATP 336 μM, inflammatory process induced 48 hrs before, time 0′ (baseline)
  nociceptive threshold or paw pressure threshold: 55 ± 2.0 g
[1]; oATP treated paws compared with untreated paws
  inflammatory signs (swelling, hyperthermia): reduction of inflammatory signs
[2]; inflamed tissues (24 h FCA), p<0.005 vs inflamed untreated paws
  ATP levels: significantly reduced
[2]; noninflamed tissues
  ATP levels: did not significantly change ATP levels
[2]; oATP treated paws, untreated 1050±90, mean±S.E.M. of 7 experiments
  ATP content of paw homogenate: 320±22 nmoles/g fresh tissue
